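Cultured in 96-well plates, cells were exposed to test compound for 48 hours across five concentrations. GI50 marks 50% less growth. TGI marks complete inhibition of growth.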
Tests used:
Assay in all cases: NCI tumour cell line growth inhibition, 48 h
[1] = system: HS 578T breast
[2] = system: OVCAR-4 ovarian
[3] = system: SNB-75 CNS
[4] = system: 786-0 renal
[5] = system: K-562 leukemia
[6] = system: M14 melanoma
[7] = system: SNB-19 CNS
[8] = system: COLO 205 colon
[9] = system: SK-MEL-5 melanoma
[10] = system: RXF 393 renal
[11] = system: TK-10 renal
[12] = system: CAKI-1 renal
[13] = system: HCC-2998 colon
[14] = system: SF-295 CNS
[15] = system: HCT-116 colon
[16] = system: HOP-92 NSCLC
[17] = system: CCRF-CEM leukemia
[18] = system: SK-OV-3 ovarian
[19] = system: OVCAR-5 ovarian
[20] = system: SW-620 colon
[21] = system: HL-60(TB) leukemia
[22] = system: OVCAR-8 ovarian
[23] = system: UO-31 renal
[24] = system: SR leukemia
[25] = system: MCF7 breast
[26] = system: MOLT-4 leukemia
[27] = system: SK-MEL-28 melanoma
[28] = system: OVCAR-3 ovarian
[29] = system: HOP-62 NSCLC
[30] = system: MDA-MB-435
[31] = system: DU-145 prostate
[32] = system: SK-MEL-2 melanoma
[33] = system: MDA-MB-231 breast
[34] = system: HCT-15 colon
[35] = system: HT29 colon
[36] = system: A549 NSCLC
[37] = system: MALME-3M melanoma
[38] = system: IGROV1 ovarian
[39] = system: NCI-H226 lung
[40] = system: LOX IMVI melanoma
[41] = system: A498 renal
[42] = system: UACC-62 melanoma
[43] = system: SF-268 CNS
[44] = system: BT-549 breast
[45] = system: ACHN renal
[46] = system: NCI-H460 lung
[47] = system: NCI-H522 lung
[48] = system: SN12C renal
[49] = system: T-47D breast
[50] = system: NCI-H23 lung
[51] = system: KM12 colon
[52] = system: MDA-MB-468 breast
[53] = system: PC-3 prostate
[54] = system: SF-539 CNS
[55] = system: UACC-257 melanoma
[56] = system: U251 CNS
[57] = system: EKVX NSCLC
[58] = system: RPMI-8226 leukemia
[59] = system: NCI/ADR-RES ovarian

## O=C(/C=C/c1cccc(Br)c1)c1nc2ccccc2n1Cc1ccc(Br)cc1
[1]
  GI50: 3.71 µM
  TGI: > 100 µM
[2]
  GI50: 4.07 µM
  TGI: > 100 µM
[3]
  GI50: 3.4 µM
  TGI: 25.2 µM
[4]
  GI50: 1.86 µM
  TGI: 3.7 µM
[5]
  GI50: 2.6 µM
  TGI: > 100 µM
[6]
  GI50: 1.77 µM
  TGI: 3.59 µM
[7]
  GI50: 1.77 µM
  TGI: 3.64 µM
[8]
  GI50: 1.99 µM
  TGI: 4.11 µM
[9]
  GI50: 1.7 µM
  TGI: 3.55 µM
[10]
  GI50: 1.54 µM
  TGI: 2.95 µM
[11]
  GI50: 3.07 µM
  TGI: 11.6 µM
[12]
  GI50: 1.85 µM
  TGI: 5.35 µM
[13]
  GI50: 1.69 µM
  TGI: 3.12 µM
[14]
  GI50: 2.07 µM
  TGI: 5.11 µM
[15]
  GI50: 1.67 µM
  TGI: 3.14 µM
[16]
  GI50: 1.6 µM
  TGI: 6.46 µM
[17]
  GI50: 2.09 µM
  TGI: > 100 µM
[18]
  GI50: 14.4 µM
  TGI: > 100 µM
[19]
  GI50: 2.06 µM
  TGI: 4.08 µM
[20]
  GI50: 1.6 µM
  TGI: 3.59 µM
[21]
  GI50: 1.75 µM
  TGI: 5.12 µM
[22]
  GI50: 2.15 µM
  TGI: 5.71 µM
[23]
  GI50: 1.37 µM
  TGI: 2.78 µM
[24]
  GI50: 2.53 µM
  TGI: 8.96 µM
[25]
  GI50: 1.7 µM
  TGI: 5.71 µM
[26]
  GI50: 2.11 µM
  TGI: 9.16 µM
[27]
  GI50: 1.82 µM
  TGI: 3.68 µM
[28]
  GI50: 1.56 µM
  TGI: 3.3 µM
[29]
  GI50: 2.16 µM
  TGI: 4.76 µM
[30]
  GI50: 2.01 µM
  TGI: 4.79 µM
[31]
  GI50: 4.1 µM
  TGI: 15.9 µM
[32]
  GI50: 1.66 µM
  TGI: 3.29 µM
[33]
  GI50: 2.06 µM
  TGI: 4.61 µM
[34]
  GI50: 1.56 µM
  TGI: 3.19 µM
[35]
  GI50: 2.13 µM
  TGI: 4.9 µM
[36]
  GI50: 3.97 µM
  TGI: > 100 µM
[37]
  GI50: 1.91 µM
  TGI: 3.97 µM
[38]
  GI50: 2.16 µM
  TGI: 5.4 µM
[39]
  GI50: 2.45 µM
  TGI: 6.13 µM
[40]
  GI50: 1.5 µM
  TGI: 2.9 µM
[41]
  GI50: 13.5 µM
  TGI: 28.1 µM
[42]
  GI50: 1.54 µM
  TGI: 3.28 µM
[43]
  GI50: 4.93 µM
  TGI: 71.7 µM
[44]
  GI50: 1.77 µM
  TGI: 3.55 µM
[45]
  GI50: 2.41 µM
  TGI: 6.53 µM
[46]
  GI50: 1.77 µM
  TGI: 3.87 µM
[47]
  GI50: 1.73 µM
  TGI: 3.48 µM
[48]
  GI50: 3.42 µM
  TGI: 12.9 µM
[49]
  GI50: 2.33 µM
  TGI: 9.62 µM
[50]
  GI50: 1.77 µM
  TGI: 3.99 µM
[51]
  GI50: 2.53 µM
  TGI: 7.44 µM
[52]
  GI50: 1.87 µM
  TGI: 3.85 µM
[53]
  GI50: 3.3 µM
  TGI: 14.9 µM
[54]
  GI50: 1.99 µM
  TGI: 3.92 µM
[55]
  GI50: 3.04 µM
  TGI: 12 µM
[56]
  GI50: 1.7 µM
  TGI: 3.38 µM
[57]
  GI50: 2.4 µM
  TGI: 7.64 µM
[58]
  GI50: 2.39 µM
  TGI: 8.27 µM

## Cc1ccc(-c2ccc(SCC(=O)Nc3ccc(Cl)c(C(F)(F)F)c3)nn2)cc1
[1]
  GI50: 1.05 µM
  TGI: 8.14 µM
[2]
  GI50: 5.86 µM
  TGI: > 100 µM
[4]
  GI50: 0.892 µM
  TGI: 37.7 µM
[5]
  GI50: 0.419 µM
  TGI: > 100 µM
[6]
  GI50: 0.538 µM
  TGI: > 100 µM
[7]
  GI50: 3.21 µM
  TGI: 56.6 µM
[8]
  GI50: 1.06 µM
  TGI: 3.51 µM
[9]
  GI50: 0.435 µM
  TGI: 8.76 µM
[10]
  GI50: 1.1 µM
  TGI: 5.93 µM
[11]
  GI50: 12.7 µM
  TGI: 52.8 µM
[12]
  GI50: 1.72 µM
  TGI: > 100 µM
[13]
  GI50: 1.29 µM
  TGI: 10.5 µM
[14]
  GI50: 0.5 µM
  TGI: 8.22 µM
[15]
  GI50: 0.445 µM
  TGI: > 100 µM
[16]
  GI50: 2.95 µM
  TGI: 59.5 µM
[17]
  GI50: 0.459 µM
  TGI: > 100 µM
[18]
  GI50: 3.82 µM
  TGI: 65.3 µM
[19]
  GI50: 3.24 µM
  TGI: > 100 µM
[20]
  GI50: 0.393 µM
  TGI: > 100 µM
[21]
  GI50: 0.319 µM
  TGI: 2.32 µM
[22]
  GI50: 2.71 µM
  TGI: > 100 µM
[23]
  GI50: 3.16 µM
  TGI: > 100 µM
[24]
  GI50: 0.34 µM
  TGI: > 100 µM
[25]
  GI50: 0.563 µM
  TGI: > 100 µM
[26]
  GI50: 0.578 µM
  TGI: > 100 µM
[27]
  GI50: 5.77 µM
  TGI: > 100 µM
[28]
  GI50: 0.409 µM
  TGI: 1.94 µM
[29]
  GI50: 1.23 µM
  TGI: 24.1 µM
[30]
  GI50: 0.22 µM
  TGI: 0.513 µM
[31]
  GI50: 2.37 µM
  TGI: 17.9 µM
[33]
  GI50: 1.15 µM
  TGI: 19.3 µM
[34]
  GI50: 0.405 µM
  TGI: > 100 µM
[35]
  GI50: 0.512 µM
  TGI: > 100 µM
[36]
  GI50: 5.34 µM
  TGI: > 100 µM
[37]
  GI50: 0.589 µM
  TGI: 36.5 µM
[38]
  GI50: 1.46 µM
  TGI: 46.4 µM
[59]
  GI50: 0.393 µM
  TGI: 2.14 µM
[39]
  GI50: 8.36 µM
  TGI: > 100 µM
[40]
  GI50: 2.48 µM
  TGI: > 100 µM
[41]
  GI50: 3.75 µM
  TGI: 38 µM
[42]
  GI50: 0.531 µM
  TGI: 39.4 µM
[43]
  GI50: 9.67 µM
  TGI: > 100 µM
[44]
  GI50: 0.829 µM
  TGI: 46.2 µM
[45]
  GI50: 6.84 µM
  TGI: > 100 µM
[46]
  GI50: 3.22 µM
  TGI: > 100 µM
[47]
  GI50: 0.528 µM
  TGI: 4 µM
[48]
  GI50: 4.85 µM
  TGI: > 100 µM
[49]
  GI50: 0.594 µM
  TGI: > 100 µM
[50]
  GI50: 2 µM
  TGI: 32.7 µM
[51]
  GI50: 0.732 µM
  TGI: > 100 µM
[52]
  GI50: 0.371 µM
  TGI: 2.25 µM
[53]
  GI50: 0.878 µM
  TGI: > 100 µM
[54]
  GI50: 0.754 µM
  TGI: 3.35 µM
[55]
  GI50: 12.1 µM
  TGI: > 100 µM
[56]
  GI50: 1.47 µM
  TGI: 38.5 µM
[57]
  GI50: 2.93 µM
  TGI: > 100 µM
[58]
  GI50: 0.986 µM
  TGI: > 100 µM
